This passage reports IC50 results from US12577217B2, “15-PGDH inhibitor” (KYORIN Pharmaceutical Co., Ltd., priority 2019, dated 2026).

The assay deals with T1, recombinant human 15-PGDH (Homo sapiens, UniProt P15428).
T1 construct: purchased R&D Systems
T1 sequence (P15428 1-266): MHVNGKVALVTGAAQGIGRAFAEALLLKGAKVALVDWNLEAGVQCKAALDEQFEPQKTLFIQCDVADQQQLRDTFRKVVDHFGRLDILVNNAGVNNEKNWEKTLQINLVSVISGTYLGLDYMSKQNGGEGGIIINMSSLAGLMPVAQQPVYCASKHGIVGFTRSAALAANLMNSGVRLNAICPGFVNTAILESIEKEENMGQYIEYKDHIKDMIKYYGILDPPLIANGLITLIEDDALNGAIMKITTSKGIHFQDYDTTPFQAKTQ
The experiment in a line: 15-PGDH enzyme inhibition test. It is filed as biochemical. The following applies: 4 nM recombinant human 15-PGDH, 30 μM PGE2, 1 mM NAD+, 60 minutes after starting the reaction; read-out: IC50 Value. In short, it runs like this: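 Fluorescence (excitation 340 nm, emission 440 nm) measured 60 min after adding 1 mM NAD+ and 30 μM PGE2 to 4 nM recombinant human 15-PGDH, which had stood 12 min at room temperature with compound in pH 8.0 Tris-HCl buffer. Concentration-response curves yield IC50, binned into potency categories.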

By IC50 is commonly meant the concentration that gives 50% inhibition.

In the case of `C[C@H]1CCCCN1C(=O)c1cnc2c(c1)OCCN2c1ccn2c(=O)n(C)nc2c1` [Example 8-28], the half-inhibitory concentration (IC50) is less than 10 nM.

Take `Cn1cnc2cc(N3CCOc4cc(C(=O)N5CCC(F)(F)CC5)ccc43)ccc2c1=O` [Example 1-153]: the IC50 was less than 10 nM.

For `Cn1nc2cc(N3CCOc4cc(C(=O)N5CCC[C@@H](F)C5)cnc43)ccn2c1=O` [Example 8-23], the IC50 was less than 10 nM.

As to `O=C(c1cnc2c(c1)CCCN2c1ccn2c(=O)[nH]nc2c1)N1CCC(F)(F)CC1` [Example 1-184], the IC50 is less than 10 nM.

Turning to `NC(=O)c1ccc(N2CCOc3cc(C(=O)N4CCCCC4)ccc32)nc1` [Example 6-2], the half-inhibitory concentration (IC50) is less than 10 nM.

Take `C[C@@H]1CCCN(C(=O)c2cnc3c(c2)CCCN3c2ccn3c(=O)n(C)nc3c2)C1` [Example 8-134]: the IC50 is less than 10 nM.

For the compound `Cn1nc2cc(N3CCCc4cc(C(=O)N5CCCCC5)cnc43)ccn2c1=O` [Example 1-94], the IC50 was less than 10 nM.

In the case of `Cn1nc2cc(N3CCOc4cc(C(=O)N5CCC[C@H]5C(N)=O)cnc43)ccn2c1=O` [Example 36-1, (S)-1-(4-(2-Methyl-3-oxo-2,3-dihydro-[1,2,4]triazolo[4,3-a]pyridin-7-yl)-3,4-dihydro-2H-pyrido[3,2-b][1,4]oxazine-7-carbonyl)pyrrolidine-2-carboxamide], the IC50 was more than 100 nM.

On to `Cc1cc(N2CCOc3cc(C(=O)N4CCCCC4)ccc32)n2ncnc2n1` [Example 24-1, (4-(5-Methyl-[1,2,4]triazolo[1,5-a]pyrimidin-7-yl)-3,4-dihydro-2H-benzo[b][1,4]oxazin-7-yl)(piperidin-1-yl)methanone], for which the IC50 is more than 100 nM.

For the compound `C[C@H]1CCCCN1C(=O)c1cnc2c(c1)CCCN2c1ccn2c(=O)n(C)nc2c1` [Example 8-133], the IC50 was less than 10 nM.

Take `O=C(c1cnc2c(c1)OCCN2c1ccccc1F)N1CCCCC1` [Example 1-238]: the half-inhibitory concentration (IC50) was more than 100 nM.

For `O=C(c1cnc2c(c1)CCCN2c1ccn2c(=O)n(C3CC3)nc2c1)N1CCCCC1` [Example 26-1, 2-Cyclopropyl-7-(6-(piperidine-1-carbonyl)-3,4-dihydro-1,8-naphthylidin-1(2H)-yl)-[1,2,4]triazolo[4,3-a]pyridin-3(2H)-one], the IC50 was less than 10 nM.

On to `COc1cc2c(cc1C(=O)N1CCCCC1)OCCN2c1ccc(C(=O)O)cc1` [Example 2-1, 4-(6-Methoxy-7-(piperidine-1-carbonyl)-2,3-dihydro-4H-benzo[b] [1,4]oxazin-4-yl)benzoic Acid], for which the IC50 fell in the range of 10 to 100 nM.

Regarding `CCN1Cc2cc(N3CCCc4cc(C(=O)N5Cc6ccccc6C5)cnc43)ccc2C1=O` [Example 8-77], the IC50 was less than 10 nM.

Regarding `CO[C@@H]1CCCN(C(=O)c2cnc3c(c2)OCCN3c2ccn3c(=O)n(C)nc3c2)C1` [Example 18-1, (R)-7-(7-(3-Methoxypiperidine-1-carbonyl)-2,3-dihydro-4H-pyrido[3,2-b] [1,4]oxazin-4-yl)-2-methyl-[1,2,4]triazolo[4,3-a]pyridin-3(2H)-one], the IC50 is less than 10 nM.

As to `O=C(c1cnc2c(c1)CCCN2c1ccn2c(=O)[nH]nc2c1)N1CCCCC1` [Example 1-171], the IC50 is less than 10 nM.

On to `COCCN1Cc2cc(N3CCCc4cc(C(=O)N5CCC(F)(F)CC5)cnc43)ncc2C1=O` [Example 1-86], for which the IC50 lay in the range of 10 to 100 nM.

`CCN1Cc2cc(N3CCCc4cc(C(=O)N5CCN(C(C)=O)CC5)cnc43)ccc2C1=O` [Example 8-74]: the 50% inhibitory concentration (IC50) is more than 100 nM.

In the case of `O=C(c1cnc2c(c1)CCCN2c1cc2c(cn1)C(=O)N(CC1COC1)C2)N1CCCCC1` [Example 1-168], the IC50 was 10 to 100 nM.

For `Cn1nc2cc(N3CC(F)(F)COc4cc(C(=O)N5CCCCC5)cnc43)ccn2c1=O` [Example 22-1, 7-(3,3-Difluoro-8-(piperidine-1-carbonyl)-3,4-dihydropyrido[3,2-b][1,4]oxazepin-5(2H)-yl)-2-methyl-[1,2,4]triazolo[4,3-a]pyridin-3 (2H)-one], the IC50 fell in the range of 10 to 100 nM.

For the compound `Cn1nc2cc(N3CCOc4cc(C(=O)N5CCCCC5)cnc43)cc(-n3ccnc3)n2c1=O` [Example 11-4], the 50% inhibitory concentration (IC50) lay in the range of 10 to 100 nM.

As for `CN1Cc2cc(N3CCOc4cc(C(=O)N5CCCCCCC5)cnc43)ccc2C1=O` [Example 8-187], the IC50 is less than 10 nM.

As to `Cn1nc2cc(N3CCOc4cc(C(=O)N5CCC(C(F)(F)F)CC5)cnc43)ccn2c1=O` [Example 8-101], the IC50 is less than 10 nM.

`O=C(c1cnc2c(c1)CCCN2c1ccc2c(=O)[nH]cnc2c1)N1CCCCC1` [Example 1-155]: the IC50 is less than 10 nM.

As for `Cn1nc2cc(N3CCOc4cc(C(=O)N5CCCC6(COC6)C5)cnc43)ccn2c1=O` [Example 8-52], the IC50 fell in the range of 10 to 100 nM.

As to `Cn1nc2cc(N3CCOc4c3ccc(C(=O)N3CCCCC3)c4Cl)ccn2c1=O` [Example 1-265], the 50% inhibitory concentration (IC50) was less than 10 nM.

As to `O=C(O)c1ccc(N2CCCS(=O)(=O)c3cc(C(=O)N4CCCCC4)ccc32)cc1` [Example 2-20], the IC50 is more than 100 nM.

Turning to `COCCN1CCN(c2ccn3c(=O)n(C)nc3c2)c2ncc(C(=O)N3CCCCC3)cc21` [Example 29-2], the 50% inhibitory concentration (IC50) is less than 10 nM.

With `C[C@H]1CCCN(C(=O)c2cnc3c(c2)OCCN3c2ccn3c(=O)[nH]nc3c2)C1` [Example 1-42], the IC50 was less than 10 nM.

In the case of `COC(=O)c1ccccc1N1CCc2cc(C(=O)N3CCCCC3)ccc21` [Example 1-138], the half-maximal inhibitory concentration (IC50) was more than 100 nM.

`O=C(c1cnc2c(c1)OCCN2c1ccc(Br)cc1)N1CCCCC1` [Example 1-243]: the half-inhibitory concentration (IC50) was 10 to 100 nM.

In the case of `CCn1nc2cc(N3CCCc4cc(C(=O)N5CCC[C@H](C(F)F)C5)cnc43)ccn2c1=O` [Example 8-168], the 50% inhibitory concentration (IC50) is less than 10 nM.

Regarding `CCOCCn1nc2cc(N3CCCc4cc(C(=O)N5CCC(F)(F)CC5)cnc43)ccn2c1=O` [Example 1-79], the half-inhibitory concentration (IC50) was less than 10 nM.

In the case of `CCN1Cc2cc(N3CCCc4cc(C(=O)N5CCC[C@@H](F)C5)cnc43)ccc2C1=O` [Example 8-83], the IC50 is less than 10 nM.

On to `CN(C)CCn1nc2cc(N3CCOc4cc(C(=O)N5CCCCC5)cnc43)ccn2c1=O` [Example 1-33], for which the IC50 is less than 10 nM.

In the case of `Cn1nc2cc(N3CCOc4cc(C(=O)N5CCC6(CC5)CC6)cnc43)ccn2c1=O` [Example 8-45], the IC50 is less than 10 nM.

For `CC(=O)N1CCN(C(=O)c2cnc3c(c2)CCCN3c2ccn3c(=O)n(C)nc3c2)CC1` [Example 8-128], the half-inhibitory concentration (IC50) is more than 100 nM.

For `NC(=O)c1ccc(N2CCOc3cc(C(=O)N4CCCCC4)ccc32)cn1` [Example 6-3], the IC50 was less than 10 nM.

Consider `Cn1nc2cc(N3CCCOc4cc(C(=O)N5CCCC5)cnc43)ccn2c1=O` [Example 8-58], for which the IC50 is less than 10 nM.

Take `CN1Cc2cc(N3CCOc4cc(C(=O)N5Cc6ccccc6C5)cnc43)ccc2C1=O` [Example 8-193]: the IC50 was less than 10 nM.

In the case of `COCCn1nc2cc(N3CCCc4cc(C(=O)N5CCCCC5)cnc43)ccn2c1=O` [Example 1-55], the IC50 is less than 10 nM.

Turning to `O=C(O)Cn1nc2cc(N3CCOc4cc(C(=O)N5CCCCC5)cnc43)ccn2c1=O` [Example 2-23], the IC50 was less than 10 nM.

As for `CCn1nc2cc(N3CCCc4cc(C(=O)N5CCC[C@@H](C(F)F)C5)cnc43)ccn2c1=O` [Example 8-167], the half-maximal inhibitory concentration (IC50) was less than 10 nM.

For the compound `CCn1nc2cc(N3CCCc4cc(C(=O)N5CCN(C(C)=O)CC5)cnc43)ccn2c1=O` [Example 8-153], the 50% inhibitory concentration (IC50) is more than 100 nM.
